Source: patent US5427922A (Takeda Chemical Industries, Ltd., priority 1992, dated 1995)
Changes are numbered by the printed parent chain.

Key:
type 1 receptors = settings: cited from earlier work
Ang II receptor = settings: cited from earlier work
[1] = system: reactions of KCl, norepinephrine, isoproterenol, vasopressin, bradykinin, acetylcholine or 5-HT; settings: at suppressive doses for a high concentration (10 μM) of Ang II; cited from earlier work
ACE = settings: at suppressive doses for a high concentration (10 μM) of Ang II; cited from earlier work
[2] = target: T1, full-length Ang II type 1 receptor of human heart origin (Homo sapiens, UniProt P30556); settings: CHO/pHARt306
T1 sequence (P30556 1-359): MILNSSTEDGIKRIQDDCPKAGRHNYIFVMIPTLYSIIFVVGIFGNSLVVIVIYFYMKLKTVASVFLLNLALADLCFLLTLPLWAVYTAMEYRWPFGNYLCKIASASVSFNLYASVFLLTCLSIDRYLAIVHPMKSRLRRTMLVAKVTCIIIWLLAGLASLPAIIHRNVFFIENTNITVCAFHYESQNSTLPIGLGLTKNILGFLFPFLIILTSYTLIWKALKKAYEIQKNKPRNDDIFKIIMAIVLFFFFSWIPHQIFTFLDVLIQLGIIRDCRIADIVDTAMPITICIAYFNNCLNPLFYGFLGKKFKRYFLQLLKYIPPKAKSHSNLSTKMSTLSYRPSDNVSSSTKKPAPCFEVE
Experimental: (§1) To each well of a 24 well petri dish, a DMEM medium containing 10% (v/v) dialyzed FCS and 35 μg/ml L-proline was added, and 1×10^5 CHO/pHAR306 cells were inoculated. […] After the reaction mixture was removed using an aspirator, 500 μl of a 5% (w/v) trichloroacetic acid solution was added to each well to stop the reaction. The amount of cAMP was measured by EIA (cAMP enzyme immunoassay system, produced by Amersham).

[3] = target: T2, full-length Ang II type 1 receptor of human placental origin (Homo sapiens, UniProt P30556); assay: Ang II binding activity of isolated CHO cell clone (method of Example 9); settings: CHO/pHARp306 clone
T2 sequence (P30556 1-359 Q187R/F204S/L205C/K232N/K240R/L268Q/C289W/R311K/Y312D/F313I): T1 sequence (P30556 1-359) with Q187R, F204S, L205C, K232N, K240R, L268Q, C289W, R311K, Y312D, F313I
Experimental: After the mixture was thrice washed with TSMB buffer, cells were solubilized with 1N sodium hydroxide (1 ml), and their radioactivity was determined using a γ-ray counter.

[4] = target: T1, full-length Ang II type 1 receptor of human heart origin; settings: CHO/pHARt306; remark: listed apart in the source
Experimental: (§2) To each well of a 12 well petri dish, a DMEM medium containing 10% (v/v) dialyzed-FCS and 35 μg/ml L-proline was added, and 1×10^5 CHO/pHAR306 cells were inoculated. One day later, the medium was replaced with the same medium but containing 1 μCi/ml [^3 H]-labeled inositol (Amersham), and cultivation was continued for 24 hours. The petri dish was twice washed with a PBS buffer (FLOW Laboratories) containing 0.2% (w/v) BSA and then kept standing for 30 minutes, after which it was kept standing at 37° C. for 30 minutes in the presence of the same buffer but containing 10 mM lithium chloride. […] When the reaction time exceeded 30 seconds, the reaction mixture was removed using an aspirator, after which 1 ml of a 5% (w/v) trichloroacetic acid solution was added to each well to stop the reaction. When the reaction time was 5 to 30 seconds, 1 ml of a 10% (w/v) trichloroacetic acid solution was injected directly to each well to stop the reaction. The [^3 H]-labeled inositol phosphate (IPs) was separated using ion exchange column AG 1-X8 (Bio-Rad Laboratories). […] The radioactivity of each fraction was determined using a liquid scintillation counter.

[5] = target: T3, Ang II type 1 receptor from human placenta (Homo sapiens, UniProt P30556); assay: Radio-labeled Ang II binding activity in animal cells (COS7/pHARp306) expressing full-length Ang II type 1 receptor gene from human placenta; settings: 10 μM agonist or antagonist added; 100 pM [125I]-Ang II; room temperature, 60 minutes; control (none) 84,148 cpm
T3 sequence (P30556 1-359 Q187R/F204S/L205C/K232N/K240R/L268Q/C289W/R311K/Y312D/F313I): T1 sequence (P30556 1-359) with Q187R, F204S, L205C, K232N, K240R, L268Q, C289W, R311K, Y312D, F313I
Experimental: To each well of a 6 well petri dish, 2 ml of a DMEM medium (produced by DIFCO) containing 5% (v/v) FCS was added, and 5×10^4 COS7 cells were seeded. After incubation at 37° C. in the presence of 5% carbon dioxide for two days, the medium was aspirated and twice washed with DMEM medium.

[6] = target: T2, full-length Ang II type 1 receptor of human placental origin; assay: Changes in intracellular inositol phosphate (IPs) concentration in CHO/pHARp306 cells; assay type: cell-based
Experimental: as §2

[7] = target: T4, Ang II type 1 receptor of human placental origin (Homo sapiens, UniProt P30556); assay: Binding of radiolabeled Ang II (competition) using membrane fraction of CHO/pHARp306 cells; settings: [125I]-Ang II, 22° C., 45 minutes
T4 sequence (P30556 1-359 Q187R/F204S/L205C/K232N/K240R/L268Q/C289W/R311K/Y312D/F313I): T1 sequence (P30556 1-359) with Q187R, F204S, L205C, K232N, K240R, L268Q, C289W, R311K, Y312D, F313I
Experimental: All measurements were performed in a series of three runs. […] An aliquot of membrane fraction equivalent to 10 μg of protein was suspended in a 0.1% (w/v) BSA solution containing 25 mM Tris (pH 7.6) and 5 mM magnesium chloride, to yield a 194 μl suspension. […] After 45 minutes of reaction, the reaction mixture was aspirated onto a glass filter, which was washed with 4 ml of ice-cooled Tris (pH 7.6), and the residual radioactivity on the glass filter was measured using a γ-ray counter. The final sample concentration was varied over a range of from 1 pM to 10 μM. In the measurement, the amount of non-specific binding was defined as 0%, and the maximum mount of binding in the absence of sample defined as 100%. With this regard, the -log (M) value of the sample concentration (M) resulting in 50% binding was defined as IC50 value.

[8] = target: T5, Ang II type 1 receptor of human heart origin (Homo sapiens, UniProt P30556); assay: Binding of radiolabeled Ang II (competition) using membrane fraction of control CHO/pHARt306 cells; settings: for Competition; IC50 [-log(M)]: membrane fraction of CHO/pHARt306 (human heart origin), [125I]-Ang II, 22° C., 45 minutes
T5 sequence (P30556 1-359): T1 sequence (P30556 1-359)
Experimental: All measurements were performed in a series of three runs. […] An aliquot of membrane fraction equivalent to 10 μg of protein was suspended in a 0.1% (w/v) BSA solution containing 25 mM Tris (pH 7.6) and 5 mM magnesium chloride, to yield a 194 μl suspension. […] After 45 minutes of reaction, the reaction mixture was aspirated onto a glass filter, which was washed with 4 ml of ice-cooled Tris (pH 7.6), and the residual radioactivity on the glass filter was measured using a γ-ray counter. The final sample concentration was varied over a range of from 1 pM to 10 μM. In the measurement, the amount of non-specific binding was defined as 0%, and the maximum mount of binding in the absence of sample defined as 100%. With this regard, the -log (M) value of the sample concentration (M) resulting in 50% binding was defined as IC50 value. A membrane fraction was also extracted from control CHO/pHARt306 cells in the same manner as above, and assayed using the same assay system.

[9] = target: T2, full-length Ang II type 1 receptor of human placental origin; settings: 10 μM forskolin in place of Ang II; CHO/pHARp306
Experimental: as §1

[10] = system: full-length Ang II type 1 receptor from human placenta; assay: Change in intracellular calcium ion concentration in CHOdhfr-/pHARp206 cells (Fura-2AM fluorescence); assay type: cell-based; settings: final concentration 1 μM, 37° C.
Experimental: To each of two collagen-treated slide glasses (1×4 cm) in a 6 cm petri dish, 4 ml of an ASF104 medium (produced by Ajinomoto) containing 5% (v/v) FCS (fetal calf serum) was added, and 5×10^5 CHOdhfr- cells were seeded. After incubation at 37° C. in the presence of 5% carbon dioxide for one day, the medium was aspirated and twice washed with ASF104 medium. 5 μg of the above plasmid pHARp206 was dissolved in 50 μl of HBS buffer (8.0 g/l sodium chloride, 380 mg/l potassium chloride, 200 mg/l disodium monohydrogen phosphate, 5.9 g/l HEPES, 15 mg/l calcium chloride dihydrate, 10 mg/l magnesium chloride hexahydrate, pH 7.45). […]
After the above transformant cells CHOdhfr-/pHARp206 were twice washed with HEPES buffer (140 mM sodium chloride, 5 mM potassium chloride, 1 mM magnesium sulfate, 1 mM disodium monohydrogen phosphate, 1 mM calcium chloride, 25 mM glucose, 25 mM HEPES; pH 7.2), 4 ml of a HEPES buffer containing 4 μM Fura-2AM (Dojin Kagaku) was added, and the mixture was kept standing at 15° C. in the dark for 80 minutes. […] Fluorescence at a wavelength of 505 nm, generated upon excitation with ultraviolet rays of wavelengths of 340 nm and 380 nm, was measured.

type 2 receptors = settings: cited from earlier work

Compound: CCCCc1nc(Cl)c(CO)n1Cc1ccc(-c2ccccc2-c2nn[nH]n2)cc1 [DuP753]
- antagonism of type 1 receptors (type 1 receptors): antagonistic
- specificity of action on Ang II receptors (Ang II receptor; vascular wall, adrenal cortex and other organs): act specifically on Ang II receptors in the vascular wall, adrenal cortex and other organs to suppress Ang II action only
- effect on reactions of KCl, norepinephrine, isoproterenol, vasopressin, bradykinin, acetylcholine or 5-HT [1]: no effect
- effect on ACE action (ACE): no effect

Compound: Ang II
- suppression of forskolin-stimulated cAMP production ([2]; 1 pM to 10 μM Ang II plus 10 μM forskolin, 10 minutes, FIG. 8A): cAMP production suppression depending on Ang II concentration
- affinity to Ang II [3]: high affinity
- total IPs production, dose response ([4]; 20 minutes after stimulation, final Ang II 1 pM to 10 μM, FIG. 7A): IPs production was not suppressed even in the presence of high concentrations of Ang II
- IPs production, time course ([4]; Ang II 100 nM, 37° C.): the same IPs production pattern as with CHO/pHARp306 cells
- Radioactivity (bound [125I]-labeled Ang II) [5]: 676 cpm
- total IPs production, dose response ([6]; 20 minutes after stimulation, final Ang II 1 pM to 10 μM, FIG. 7B): IPs production was suppressed in response to stimulation with high concentrations of Ang II
- IPs production, time course ([6]; Ang II 100 nM, 37° C., FIG. 6): a transient rise in IP3 concentration occurred, followed by formation of IP2 and IP1 in this order

Compound: CCCCc1nc(Cl)c(CC(=O)[O-])n1Cc1ccccc1[N+](=O)[O-].[Na+] [CV2961]
- Ang II receptor antagonist activity (Ang II receptor): found to possess Ang II receptor antagonist activity

Compound: CCOc1nc2cccc(C(=O)O)c2n1Cc1ccc(-c2ccccc2-c2nn[nH]n2)cc1 [CV-11974]
- Competition; IC50 [-log(M)], column A (second; B in text) [7]: 9.61 -log(M)
- IC50 ([8]; read-out: Competition, IC50 [-log(M)] (converted)): 3.31e-10 M

Compound: C=C[C@@]1(C)CC(=O)[C@]2(O)[C@@]3(C)[C@@H](O)CCC(C)(C)[C@@H]3[C@H](O)[C@H](OC(C)=O)[C@@]2(C)O1 [forskolin]
- formation of cAMP ([2]; 10 μM forskolin in place of Ang II): about 80 pmol/well
- formation of cAMP [9]: about 80 pmol/well

Compound: endothelin 1: endothelin 1 (CSCSSLMDKECVYFCHLDIIW)
- change in fluorescence (intracellular Ca ion concentration) [10]: no change occurred in fluorescence

Compound: Ang III: amino acid number of Ang III is lower by 1 than that of Ang II; used as agonist
- Radioactivity (bound [125I]-labeled Ang II) [5]: 670 cpm
- Competition; IC50 [-log(M)], column A (second; B in text) [7]: 9.07 -log(M)
- Competition; IC50 [-log(M)] [8]: 7.57 -log(M)

Compound: Cc1cc(Cn2cnc3c2CC(C(=O)O)N(C(=O)C(c2ccccc2)c2ccccc2)C3)ccc1N (stereo not drawn) [PD123177]
- Radioactivity (bound [125I]-labeled Ang II) [5]: 69,980 cpm
- antagonism of type 2 receptors (type 2 receptors): antagonistic
- Competition; IC50 [-log(M)], column A (second; B in text) [7]: 5.49 -log(M)
- Competition; IC50 [-log(M)] [8]: < 6.00 -log(M)
